The source of these data is paper PMC5218480 (PLoS ONE, 2017).

The test system of this assay is MV-4-11 cells. Description: Gene expression microarray analysis (Affymetrix PrimeView) and GSEA. Format: cell-based, human. Also noted: RFU PODN (11730768_x_at) / Fold change /veh PODN (11730768_x_at) / RFU LINC00158 (11744669_a_at) / Fold change /veh LINC00158 (11744669_a_at) / RFU DUSP10 (11751237_a_at) / Fold change /veh DUSP10 (11751237_a_at) / RFU ID3 (11757404_x_at) / Fold change /veh ID3 (11757404_x_at) / RFU PLEKHG5 (11737974_s_at) / Fold change /veh PLEKHG5 (11737974_s_at) / RFU LRRC4B (11730491_at) / Fold change /veh LRRC4B (11730491_at) / RFU GIMAP4 (11747438_a_at) / Fold change /veh GIMAP4 (11747438_a_at) / RFU KRT8 (11758183_x_at) / Fold change /veh KRT8 (11758183_x_at) / RFU CNN1 (11734310_a_at) / Fold change /veh CNN1 (11734310_a_at) / RFU VPS37D (11726825_at) / Fold change /veh VPS37D (11726825_at) / RFU C10orf10 (11716522_x_at) / Fold change /veh C10orf10 (11716522_x_at) / RFU KIR2DL2 /// KIR2DL4 /// KIR2DL5A /// KIR2DL5B /// KIR2DS1 /// KIR2DS2 /// KIR2DS3 /// KIR2DS4 /// KIR3DL3 /// KIR3DL3 /// KIR3DS1 (11738374_at) / Fold change /veh KIR2DL2 /// KIR2DL4 /// KIR2DL5A /// KIR2DL5B /// KIR2DS1 /// KIR2DS2 /// KIR2DS3 /// KIR2DS4 /// KIR3DL3 /// KIR3DL3 /// KIR3DS1 (11738374_at) / RFU C1QL1 (11718748_at) / Fold change /veh C1QL1 (11718748_at) / RFU TMPRSS4 (11747572_a_at) / Fold change /veh TMPRSS4 (11747572_a_at) / RFU HAMP (11756126_x_at) / Fold change /veh HAMP (11756126_x_at) / RFU RNFT2 (11725882_a_at) / Fold change /veh RNFT2 (11725882_a_at) / RFU NR4A2 (11747474_a_at) / Fold change /veh NR4A2 (11747474_a_at) / RFU ABCC12 (11746883_a_at) / Fold change /veh ABCC12 (11746883_a_at) / RFU TMEM136 (11760407_x_at) / Fold change /veh TMEM136 (11760407_x_at) / RFU CLDN22 /// WWC2 (11732394_at) / Fold change /veh CLDN22 /// WWC2 (11732394_at) / RFU HLA-DPB1 (11760878_x_at) / Fold change /veh HLA-DPB1 (11760878_x_at) / RFU SPINT1 (11716480_a_at) / Fold change /veh SPINT1 (11716480_a_at) / RFU GAP43 (11754022_s_at) / Fold change /veh GAP43 (11754022_s_at) / RFU A4GNT (11735810_at) / Fold change /veh A4GNT (11735810_at) / RFU PRB3 (11715151_x_at) / Fold change /veh PRB3 (11715151_x_at) / RFU TUBB4B (11761932_at) / Fold change /veh TUBB4B (11761932_at) / RFU CAPN14 (11732068_a_at) / Fold change /veh CAPN14 (11732068_a_at) / RFU TMCC2 (11721928_a_at) / Fold change /veh TMCC2 (11721928_a_at) / RFU IRGQ (11745062_a_at) / Fold change /veh IRGQ (11745062_a_at) / RFU FAM174B (11720279_a_at) / Fold change /veh FAM174B (11720279_a_at) / RFU TMPRSS4 (11748680_a_at) / Fold change /veh TMPRSS4 (11748680_a_at) / RFU FAM212B (11763350_a_at) / Fold change /veh FAM212B (11763350_a_at) / RFU PLEKHG5 (11743358_a_at) / Fold change /veh PLEKHG5 (11743358_a_at) / RFU ZSCAN30 (11745921_a_at) / Fold change /veh ZSCAN30 (11745921_a_at) / RFU CMKLR1 (11741424_a_at) / Fold change /veh CMKLR1 (11741424_a_at) / RFU LOC101060620 /// MAPK8IP1 (11723275_at) / Fold change /veh LOC101060620 /// MAPK8IP1 (11723275_at) / RFU SPTSSB (11747773_x_at) / Fold change /veh SPTSSB (11747773_x_at) / RFU PRSS12 (11739890_at) / Fold change /veh PRSS12 (11739890_at) / RFU BIN1 (11741810_x_at) / Fold change /veh BIN1 (11741810_x_at) / RFU WNT11 (11732464_a_at) / Fold change /veh WNT11 (11732464_a_at) / RFU C10orf10 (11716521_a_at) / Fold change /veh C10orf10 (11716521_a_at) / RFU C5orf56 (11738089_at) / Fold change /veh C5orf56 (11738089_at) / RFU CYB561 (11721691_x_at) / Fold change /veh CYB561 (11721691_x_at) / RFU ANKRD19P (11752326_a_at) / Fold change /veh ANKRD19P (11752326_a_at) / RFU OR2T12 /// OR2T33 /// OR2T8 (11738714_s_at) / Fold change /veh OR2T12 /// OR2T33 /// OR2T8 (11738714_s_at) / RFU VCAN (11748164_a_at) / Fold change /veh VCAN (11748164_a_at) / RFU JSRP1 (11732532_at) / Fold change /veh JSRP1 (11732532_at) / RFU KRTAP10-11 (11738290_x_at) / Fold change /veh KRTAP10-11 (11738290_x_at) / RFU MYO3A (11730013_a_at) / Fold change /veh MYO3A (11730013_a_at) / RFU EBF3 (11725865_a_at) / Fold change /veh EBF3 (11725865_a_at) / RFU CAMK2N1 (11719241_x_at) / Fold change /veh CAMK2N1 (11719241_x_at) / RFU C5orf56 (11738088_a_at) / Fold change /veh C5orf56 (11738088_a_at) / RFU OLFML3 (11715873_a_at) / Fold change /veh OLFML3 (11715873_a_at) / RFU LOC100653217 /// NTM (11731650_a_at) / Fold change /veh LOC100653217 /// NTM (11731650_a_at) / RFU MAPK11 (11762145_a_at) / Fold change /veh MAPK11 (11762145_a_at) / RFU FIZ1 (11724087_x_at) / Fold change /veh FIZ1 (11724087_x_at) / RFU OASL (11726364_x_at) / Fold change /veh OASL (11726364_x_at) / RFU SOX15 (11748057_x_at) / Fold change /veh SOX15 (11748057_x_at) / RFU CD79A (11719716_a_at) / Fold change /veh CD79A (11719716_a_at) / RFU HIST1H1D (11736915_at) / Fold change /veh HIST1H1D (11736915_at) / RFU CASKIN2 (11723855_a_at) / Fold change /veh CASKIN2 (11723855_a_at) / RFU LOC730098 (11760151_x_at) / Fold change /veh LOC730098 (11760151_x_at) / RFU OR4N2 (11742367_at) / Fold change /veh OR4N2 (11742367_at) / RFU PRRT2 (11749266_a_at) / Fold change /veh PRRT2 (11749266_a_at) / RFU SNX32 (11753110_a_at) / Fold change /veh SNX32 (11753110_a_at) / RFU CDHR5 (11726645_a_at) / Fold change /veh CDHR5 (11726645_a_at) / RFU RCAN1 (11760418_a_at) / Fold change /veh RCAN1 (11760418_a_at) / RFU FAM167A (11723789_a_at) / Fold change /veh FAM167A (11723789_a_at) / RFU FAM26E (11764081_at) / Fold change /veh FAM26E (11764081_at) / RFU ISYNA1 (11749810_s_at) / Fold change /veh ISYNA1 (11749810_s_at) / RFU ACY1 (11761880_at) / Fold change /veh ACY1 (11761880_at) / RFU 11764098_at / Fold change /veh 11764098_at / RFU SAMD14 (11745864_x_at) / Fold change /veh SAMD14 (11745864_x_at) / RFU NPB (11741838_a_at) / Fold change /veh NPB (11741838_a_at) / RFU TMPRSS6 (11731388_a_at) / Fold change /veh TMPRSS6 (11731388_a_at) / RFU KRTAP10-2 (11738614_at) / Fold change /veh KRTAP10-2 (11738614_at) / RFU ARHGAP8 /// PRR5-ARHGAP8 (11727945_x_at) / Fold change /veh ARHGAP8 /// PRR5-ARHGAP8 (11727945_x_at) / RFU KRTAP5-7 /// NADSYN1 (11734609_at) / Fold change /veh KRTAP5-7 /// NADSYN1 (11734609_at) / RFU RASL12 (11751679_a_at) / Fold change /veh RASL12 (11751679_a_at) / RFU CDKN2B (11736163_a_at) / Fold change /veh CDKN2B (11736163_a_at) / RFU PRF1 (11729649_at) / Fold change /veh PRF1 (11729649_at) / RFU, ZNF638 /// ZNF638-IT1 / Fold change vs veh, ZNF638 /// ZNF638-IT1 / RFU, PANK3 / Fold change vs veh, PANK3 / RFU, SH3YL1 / Fold change vs veh, SH3YL1 / RFU, ZEB2 / Fold change vs veh, ZEB2 / RFU, NRIP1 / Fold change vs veh, NRIP1 / RFU, PTTG1IP / Fold change vs veh, PTTG1IP / RFU, CAPN2 / Fold change vs veh, CAPN2 / RFU, MED14 / Fold change vs veh, MED14 / RFU, SNORA58 / Fold change vs veh, SNORA58 / RFU, C1orf63 / Fold change vs veh, C1orf63 / RFU, LRRFIP1 / Fold change vs veh, LRRFIP1 / RFU, NDUFAF7 / Fold change vs veh, NDUFAF7 / RFU, SLC12A2 / Fold change vs veh, SLC12A2 / RFU, IBTK / Fold change vs veh, IBTK / RFU, ESF1 / Fold change vs veh, ESF1 / Fold change vs veh, TMEM50B / RFU, TAOK1 / Fold change vs veh, TAOK1 / RFU, ACBD3 / Fold change vs veh, ACBD3 / RFU, TMA16 / Fold change vs veh, TMA16 / RFU, RWDD3 / Fold change vs veh, RWDD3 / RFU, BCAT1 / Fold change vs veh, BCAT1 / RFU, EDEM3 / Fold change vs veh, EDEM3 / RFU, TMEM33 / Fold change vs veh, TMEM33 / RFU, WDR75 / Fold change vs veh, WDR75 / RFU, AHCTF1 / Fold change vs veh, AHCTF1 / RFU, TFRC / Fold change vs veh, TFRC / RFU, ZDHHC17 / Fold change vs veh, ZDHHC17 / RFU, NOM1 / Fold change vs veh, NOM1 / RFU, ARL8B / Fold change vs veh, ARL8B / RFU, ZBTB11 / Fold change vs veh, ZBTB11 / RFU, TAMM41 / Fold change vs veh, TAMM41 / RFU, KIAA1704 /// LOC100996395 / Fold change vs veh, KIAA1704 /// LOC100996395 / RFU, ING1 / Fold change vs veh, ING1 / RFU, TRMT61B / Fold change vs veh, TRMT61B / RFU, FUBP3 / Fold change vs veh, FUBP3 / RFU, TP53 / Fold change vs veh, TP53 / RFU, TNKS2 / Fold change vs veh, TNKS2 / RFU, ZFP14 / Fold change vs veh, ZFP14 / RFU, ACTR2 / Fold change vs veh, ACTR2 / RFU, PPP3R1 / Fold change vs veh, PPP3R1 / RFU, PIK3R1 / Fold change vs veh, PIK3R1 / RFU, HNRNPA1 / Fold change vs veh, HNRNPA1 / RFU, RNF170 / Fold change vs veh, RNF170 / RFU, ZNF28 / Fold change vs veh, ZNF28 / RFU, RNGTT / Fold change vs veh, RNGTT / RFU, OGT / Fold change vs veh, OGT / RFU, BRD1 / Fold change vs veh, BRD1 / RFU, MARS / Fold change vs veh, MARS / RFU, ZNF655 / Fold change vs veh, ZNF655 / RFU, FAHD1 / Fold change vs veh, FAHD1 / RFU, BDP1 / Fold change vs veh, BDP1 / RFU, LRRCC1 / Fold change vs veh, LRRCC1 / RFU, ARID1A / Fold change vs veh, ARID1A / RFU, ZNF146 / Fold change vs veh, ZNF146 / RFU, ZNF330 / Fold change vs veh, ZNF330 / RFU, GPN3 / Fold change vs veh, GPN3 / RFU, C9orf123 / Fold change vs veh, C9orf123 / RFU, N4BP2L2 / Fold change vs veh, N4BP2L2 / RFU, ARFIP1 / Fold change vs veh, ARFIP1 / RFU, FAM179B / Fold change vs veh, FAM179B / RFU, BCL10 / Fold change vs veh, BCL10 / RFU, UHRF1BP1L / Fold change vs veh, UHRF1BP1L / RFU, BET1 / Fold change vs veh, BET1 / RFU, CNOT2 / Fold change vs veh, CNOT2 / RFU, ZNF268 / Fold change vs veh, ZNF268 / Fold change vs veh, ZNF507 / RFU, DGCR2 / Fold change vs veh, DGCR2 / RFU, WDSUB1 / Fold change vs veh, WDSUB1 / Fold change vs veh, HSP90B1 /// MIR3652 / RFU, ADSS / Fold change vs veh, ADSS / RFU, GK / Fold change vs veh, GK / RFU, ZNF148 / Fold change vs veh, ZNF148 / RFU, TAF9 / Fold change vs veh, TAF9 / RFU, SLC1A5 / Fold change vs veh, SLC1A5 / RFU, SLMO2 / Fold change vs veh, SLMO2 / RFU, ABCC4 / Fold change vs veh, ABCC4 / RFU, LOC101060439 /// RAP1B / Fold change vs veh, LOC101060439 /// RAP1B / RFU, RFX7 / Fold change vs veh, RFX7 / RFU, GTPBP10 / Fold change vs veh, GTPBP10 / RFU, CNEP1R1 / Fold change vs veh, CNEP1R1 / RFU, BIVM-ERCC5 /// ERCC5 / Fold change vs veh, BIVM-ERCC5 /// ERCC5 / RFU, ILF3 / Fold change vs veh, ILF3 / RFU 11762660_at / Fold change /veh 11762660_at / RFU VCAN (11757783_s_at) / Fold change /veh VCAN (11757783_s_at) / RFU DDX43 (11728927_at) / Fold change /veh DDX43 (11728927_at) / RFU KRT8 (11758188_x_at) / Fold change /veh KRT8 (11758188_x_at) / RFU NKD1 (11759106_at) / Fold change /veh NKD1 (11759106_at) / RFU SRD5A1 (11742802_a_at) / Fold change /veh SRD5A1 (11742802_a_at) / RFU TPSAB1 /// TPSB2 (11721975_s_at) / Fold change /veh TPSAB1 /// TPSB2 (11721975_s_at) / RFU GSTM3 (11746129_a_at) / Fold change /veh GSTM3 (11746129_a_at) / RFU IL23R (11737362_x_at) / Fold change /veh IL23R (11737362_x_at) / RFU TMEM51 (11727254_a_at) / Fold change /veh TMEM51 (11727254_a_at) / RFU PIWIL2 (11732686_x_at) / Fold change /veh PIWIL2 (11732686_x_at) / RFU ORM1 (11744905_x_at) / Fold change /veh ORM1 (11744905_x_at) / RFU CCDC152 (11743942_at) / Fold change /veh CCDC152 (11743942_at) / RFU ECM1 (11717891_a_at) / Fold change /veh ECM1 (11717891_a_at) / RFU IL23R (11748794_a_at) / Fold change /veh IL23R (11748794_a_at) / RFU TNFAIP8L3 (11732012_x_at) / Fold change /veh TNFAIP8L3 (11732012_x_at) / RFU MBOAT4 (11741988_at) / Fold change /veh MBOAT4 (11741988_at) / RFU 11764193_at / Fold change /veh 11764193_at / RFU TMEM53 (11763286_at) / Fold change /veh TMEM53 (11763286_at) / RFU MAGEB2 (11727129_at) / Fold change /veh MAGEB2 (11727129_at) / RFU TMEM200A (11744735_a_at) / Fold change /veh TMEM200A (11744735_a_at) / RFU CCDC152 (11751479_a_at) / Fold change /veh CCDC152 (11751479_a_at) / RFU FAM211A (11726209_a_at) / Fold change /veh FAM211A (11726209_a_at) / RFU RGS16 (11746705_a_at) / Fold change /veh RGS16 (11746705_a_at) / RFU VCAN (11755009_s_at) / Fold change /veh VCAN (11755009_s_at) / RFU RHOB (11743442_s_at) / Fold change /veh RHOB (11743442_s_at) / RFU RGS16 (11720943_a_at) / Fold change /veh RGS16 (11720943_a_at) / RFU RGS16 (11720944_at) / Fold change /veh RGS16 (11720944_at) / RFU, VPS4B / Fold change vs veh, VPS4B / RFU, CREB1 / Fold change vs veh, CREB1 / RFU, DNAJC13 / Fold change vs veh, DNAJC13 / RFU, GNAQ / Fold change vs veh, GNAQ / RFU, CDK5R1 / Fold change vs veh, CDK5R1 / RFU, ZRANB3 / Fold change vs veh, ZRANB3 / RFU, CUL4A / Fold change vs veh, CUL4A / RFU, CCNY / Fold change vs veh, CCNY / RFU, UFL1 / Fold change vs veh, UFL1 / RFU, COG3 / Fold change vs veh, COG3 / RFU, DIAPH2 / Fold change vs veh, DIAPH2 / RFU, SKA2 / Fold change vs veh, SKA2 / RFU, AFF3 / Fold change vs veh, AFF3 / RFU, LMF1 / Fold change vs veh, LMF1 / RFU, IPO11 / Fold change vs veh, IPO11 / RFU, DFFB / Fold change vs veh, DFFB / RFU, FOXP1 / Fold change vs veh, FOXP1 / RFU, CARD8 / Fold change vs veh, CARD8 / RFU, STRN3 / Fold change vs veh, STRN3 / RFU, ADK / Fold change vs veh, ADK / RFU, RASSF2 / Fold change vs veh, RASSF2 / RFU, WIPF1 / Fold change vs veh, WIPF1 / RFU, LARP1B / Fold change vs veh, LARP1B / RFU, RASA1 / Fold change vs veh, RASA1 / RFU, RB1 / Fold change vs veh, RB1 / RFU, PPFIA1 / Fold change vs veh, PPFIA1 / RFU, MAT2A / Fold change vs veh, MAT2A / RFU, CCT5 / Fold change vs veh, CCT5 / RFU, WDR92 / Fold change vs veh, WDR92 / RFU, CUX1 / Fold change vs veh, CUX1 / RFU, TTC7A / Fold change vs veh, TTC7A / RFU, TMEM135 / Fold change vs veh, TMEM135 / RFU, DEPTOR / Fold change vs veh, DEPTOR / RFU, CPM / Fold change vs veh, CPM / RFU, DNAJB6 / Fold change vs veh, DNAJB6 / RFU, CACNA2D3 / Fold change vs veh, CACNA2D3 / RFU, DTX4 / Fold change vs veh, DTX4 / RFU, TFCP2 / Fold change vs veh, TFCP2 / RFU, GMCL1 /// GMCL1P1 / Fold change vs veh, GMCL1 /// GMCL1P1 / RFU, AEBP2 / Fold change vs veh, AEBP2 / RFU, SNHG1 /// SNORD22 /// SNORD25 /// SNORD26 /// SNORD27 /// SNORD28 /// SNORD29 /// SNORD31 / Fold change vs veh, SNHG1 /// SNORD22 /// SNORD25 /// SNORD26 /// SNORD27 /// SNORD28 /// SNORD29 /// SNORD31 / Fold change (Aza/veh), C12orf56 (ProbeSet 11735607_a_at) / Fold change (ACY-1035/veh), C12orf56 (ProbeSet 11735607_a_at) / Fold change (Aza/veh), FGFR1OP (ProbeSet 11751329_s_at) / Fold change (ACY-1035/veh), FGFR1OP (ProbeSet 11751329_s_at) / Fold change (Aza/veh), VPS36 (ProbeSet 11739960_a_at) / Fold change (ACY-1035/veh), VPS36 (ProbeSet 11739960_a_at) / RFU SYPL1 (11715823_x_at) / Fold change /veh SYPL1 (11715823_x_at) / RFU IGFBP7 (11715501_s_at) / Fold change /veh IGFBP7 (11715501_s_at) / RFU REEP3 (11722064_at) / Fold change /veh REEP3 (11722064_at) / RFU IGLL1 (11728026_x_at) / Fold change /veh IGLL1 (11728026_x_at): dose or concentration left out as unconfirmed. Conditions: ProbeSet 11725100_s_at; LIST B.

`Nc1ncn([C@@H]2O[C@H](CO)[C@@H](O)[C@H]2O)c(=O)n1` [azacitidine]: the “RFU, ESF1” value came to 107.31 RFU.
